In patent US5952368A, “5-aroylpyrrol-2-ylmethylarene derivatives” (Syntex (U.S.A.) Inc., priority 1997, dated 1999):
Like-named read-outs stand apart in the source and are kept apart here.

Key:
COX I = molecular target: T1, COX I (Homo sapiens, UniProt P23219); test: Inhibition of COX I in vitro (radiometric assay, 14C arachidonic acid, partially purified enzyme); type: biochemical
T1 construct: made in house; baculovirus-infected insect cells by own knowledge of the cited Barnett et al. 1994
Method: (§1) The COX I and COX II inhibitory activity of compounds of this invention in vitro was determined using partially purified COX I and COX II enzymes, prepared as described in J. Barnett et al., Biochim. Biophys. Acta, 1209:130--139 (1994).
(§2) COX I and COX II samples were diluted with Tris-HCl buffer (50 mM Tris-HCl pH 7.9) containing 2 mM EDTA and 10% glycerol and reconstituted by incubating first with 2 mM phenol for 5 minutes and then with 1 micromolar hematin for an additional 5 minutes. 125 μl of the reconstituted COX I or COX II enzyme were preincubated for 10 minutes at room temperature in a shaking water bath with the compounds of the invention dissolved in 2-15 μl of DMSO or the carrier vehicles (control samples). The enzyme reaction was initiated by adding 25 μl of 1-[14C] arachidonic acid (80,000-100,000 cpm/tube; 20 micromolar final concentration) and the reaction was allowed to continue for an additional 45 seconds. The reaction was terminated by adding 100 μl of 2N HCl and 750 μl water. An aliquot (950 μl) of the reaction mixture was loaded onto a 1 ml C18 Sep-Pak column (J. T. Baker, Phillipsburg, N.J.) which had been previously washed with 2-3 ml methanol and equilibrated with 5-6 ml distilled water. Oxygenated products were quantitatively eluted with 3 ml of acetonitrile/water/acetic acid (50:50:0.1, v/v) and the radioactivity in the eluate determined in a scintillation counter.

COX II = molecular target: T2, COX II (Homo sapiens, UniProt P35354); test: Inhibition of COX II in vitro (radiometric assay, 14C arachidonic acid, partially purified enzyme); type: biochemical
T2 construct: made in house; baculovirus-infected insect cells by own knowledge of the cited Barnett et al. 1994
T2 sequence (P35354 18-604): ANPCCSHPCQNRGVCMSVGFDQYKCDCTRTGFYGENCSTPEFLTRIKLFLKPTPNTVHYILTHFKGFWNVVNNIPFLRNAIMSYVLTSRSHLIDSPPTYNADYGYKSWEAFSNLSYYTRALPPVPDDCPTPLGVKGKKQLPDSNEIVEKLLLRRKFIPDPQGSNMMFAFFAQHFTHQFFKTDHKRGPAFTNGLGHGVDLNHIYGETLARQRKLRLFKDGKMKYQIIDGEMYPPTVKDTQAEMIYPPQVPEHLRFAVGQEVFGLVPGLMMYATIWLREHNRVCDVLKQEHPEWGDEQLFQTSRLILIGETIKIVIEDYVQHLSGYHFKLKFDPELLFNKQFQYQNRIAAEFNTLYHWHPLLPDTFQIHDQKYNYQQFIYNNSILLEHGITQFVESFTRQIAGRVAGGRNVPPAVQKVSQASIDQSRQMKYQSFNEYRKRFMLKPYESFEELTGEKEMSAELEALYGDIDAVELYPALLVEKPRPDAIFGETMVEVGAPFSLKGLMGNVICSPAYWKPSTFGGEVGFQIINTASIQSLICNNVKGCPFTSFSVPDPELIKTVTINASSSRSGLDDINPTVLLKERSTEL
Method: as §1, §2

air pouch PGE2 formation = test: Inhibition of eicosanoid (PGE2) synthesis in vivo: carrageenan air-pouch model in rats; parameters: species or system rat; details: 30 mg/Kg, oral, male rats, 6 hr
Method: In this assay, an air-pouch is created in the rat and the PGE2 levels in the air-pouch exudate are measured by enzyme immunoassay. Briefly, male rats were anesthetized using a 60:40 CO2 :O2 mixture and subsequently injected subcutaneously with 20 ml of sterilized air, under aseptic conditions, in the proximal area of the dorsum. This injection of sterile air causes the creation of a subcutaneous "air pouch". The next day, a further 10 ml of sterile air was injected into the previously formed pouch using the same technique. […] Control rats received vehicle alone. After 30 minutes, 5 ml of a 0.5% solution of carrageenan (Sigma, Lambda Type IV) was injected into the air pouch. The rats were euthanized 3 or 6 h after the compound administration. […] The total exudate volume was recorded, and the samples were analyzed for PGE2 and 6-keto PGF1 by ELISA (Titerzyme®, PerSeptive Diagnostics) and TxB2 by radioimmuno assay (New England Nuclear Research, Catalog No. NEK-037), according to the manufacturer's directions.
The mean concentrations of PGE2 were calculated for each group. The anti-inflammatory activity of test materials is expressed as the percent inhibition of PGE2 formation in the test group relative to the control group.

[1] = partially purified COX I, 20 micromolar arachidonic acid, 10 min preincubation, room temperature, read-out: COX I IC50
[2] = partially purified COX II, 20 micromolar arachidonic acid, 10 min preincubation, room temperature, read-out: COX II IC50

T1 sequence (P23219 24-599): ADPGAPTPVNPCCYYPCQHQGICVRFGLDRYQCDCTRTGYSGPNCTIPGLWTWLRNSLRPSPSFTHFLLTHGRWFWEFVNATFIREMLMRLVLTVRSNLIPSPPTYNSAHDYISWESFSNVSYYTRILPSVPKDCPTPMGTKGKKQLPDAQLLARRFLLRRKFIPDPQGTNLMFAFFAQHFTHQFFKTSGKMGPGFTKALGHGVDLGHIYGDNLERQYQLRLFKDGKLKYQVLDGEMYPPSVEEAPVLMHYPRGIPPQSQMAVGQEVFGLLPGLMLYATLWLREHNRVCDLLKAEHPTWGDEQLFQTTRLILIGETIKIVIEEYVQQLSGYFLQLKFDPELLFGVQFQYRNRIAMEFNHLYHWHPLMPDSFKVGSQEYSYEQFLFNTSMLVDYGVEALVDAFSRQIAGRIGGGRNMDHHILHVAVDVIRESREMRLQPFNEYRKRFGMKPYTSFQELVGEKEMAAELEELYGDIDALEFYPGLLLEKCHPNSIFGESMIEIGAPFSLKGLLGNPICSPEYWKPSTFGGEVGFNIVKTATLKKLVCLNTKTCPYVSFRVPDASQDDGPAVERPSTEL

Row | Molecule | IC50 (COX I; [1]) | IC50 (COX II; [2]) | % Inhibition of air pouch PGE2 formation (air pouch PGE2 formation) | IC50 (COX I) | IC50 (COX II)
1 | CNS(=O)(=O)Nc1ccc(Cc2cc(C)c(C(=O)c3ccc(F)cc3)n2C)c(F)c1 [compound 206, 1-{3-Fluoro-4-[5-(4-fluorobenzoyl)-1,4-dimethyl-1H-pyrrol-2-ylmethyl]phenyl}-3-methylsulfamide] | 0.46 µM | 0.24 µM |  |  | 
2 | NS(=O)(=O)Nc1ccc(C2CCn3c(C(=O)c4ccccc4)ccc32)c(Cl)c1 (centres unmarked) [compound 222, 1-{3-Chloro-4-[5-benzoyl-1,2-dihydro-3H-pyrrolizin-1-yl]phenyl}sulfamide] | 0.46 µM | 0.074 µM |  |  | 
3 | COc1ccc(C(=O)c2ccc3n2CCC3c2ccc(NS(N)(=O)=O)cc2Cl)cc1 (centres unmarked) [compound 223, 1-{3-Chloro-4-[5-(4-methoxybenzoyl)-1,2-dihydro-3H-pyrrolizin-1-yl]phenyl}sulfamide] | 0.064 µM | 0.029 µM |  |  | 
4 | Cc1cc(Cc2ccc(NC(=O)N(C)C)cc2)n(C)c1C(=O)c1ccc(Cl)cc1 [compound 226, 1-{1,4-[5-(4-Chlorobenzoyl)-1,4-dimethyl-1H-pyrrol-2-ylmethyl]phenyl}-3,3-dimethylurea] | 100 µM | 2.1 µM |  |  | 
5 | Cc1cc(Cc2ccc(NC(=O)Nc3ccccc3)cc2)n(C)c1C(=O)c1ccc(Cl)cc1 [compound 227, 1-{1,4-[5-(4-Chlorobenzoyl)-1,4-dimethyl-1H-pyrrol-2-ylmethyl]phenyl}-3-phenylurea] | 2.5 µM | 0.1 µM |  |  | 
6 | Cc1cc(Cc2ccc(NC(=O)Nc3cccc(Cl)c3)cc2)n(C)c1C(=O)c1ccc(Cl)cc1 [compound 228, 1-{4-[5-(4-Chlorobenzoyl)-1,4-dimethyl-1H-pyrrol-2-ylmethyl]phenyl}-3-(3-chlorophenyl)-urea] | 8.5 µM | 0.1 µM |  |  | 
7 | CCNC(=S)Nc1ccc(Cc2cc(C)c(C(=O)c3ccc(Cl)cc3)n2C)cc1 [compound 235] | 8.2 µM | 0.17 µM |  |  | 
8 | CNC(=S)Nc1ccc(Cc2cc(C)c(C(=O)c3ccc(Cl)cc3)n2C)cc1 [compound 236] | 15 µM | 0.51 µM | 71% |  | 
9 | Cc1cc(Cc2ccc(NC(=O)CF)cc2)n(C)c1C(=O)c1ccc(Cl)cc1 [compound 243, N-{4-[5-(4-Chlorobenzoyl)-1,4-dimethyl-1H-pyrrol-2-ylmethyl]phenyl}fluoroacetamide] |  |  |  | 100 µM | 8.9 µM
10 | Cc1cc(Cc2ccc(N)cc2)n(C)c1C(=O)c1ccc(Cl)cc1 [compound 250, 4-[5-(4-Chlorobenzoyl)-1,4-dimethyl-1H-pyrrol-2-ylmethyl]aniline] | 34 µM | 27.4 µM |  |  | 
11 | CSc1ccc(C(=O)c2c(C)cc(Cc3ccc(N)cc3F)n2C)cc1 [compound 251, 3-Fluoro-4-[5-(4-methylthiobenzoyl)-1,4-dimethyl-1H-pyrrol-2-ylmethyl]aniline] | 310 µM | 0.64 µM |  |  | 
12 | Cc1cc(Cc2ccc(NS(=O)(=O)CCO)cn2)n(C)c1C(=O)c1ccc(Cl)cc1 [compound 267, N-{2-[5-(4-Chlorobenzoyl)-1,4-dimethyl-1H-pyrrol-2-ylmethyl]pyridin-5-yl}-2-(hydroxy)ethanesulfonamide] | 210 µM | 0.7 µM |  |  | 
13 | Cc1ccc(C(=O)c2ccc(Cc3ncc(NS(C)(=O)=O)cc3Cl)n2C)cc1 [compound 276, N-{3-Chloro-2-[5-(4-methylbenzoyl)-1-methyl-1H-pyrrol-2-ylmethyl]pyridin-5-yl}-methanesulfonamide] | 60 µM | 0.5 µM |  |  | 
14 | COc1ccc(C(=O)c2c(C)cc(Cc3ccc(NS(C)(=O)=O)cn3)n2C)cc1 [compound 289, N-{2-[5-(4-Methoxybenzoyl)-1,4-dimethyl-1H-pyrrol-2-ylmethyl]pyridin-5-yl}-methanesulfonamide] | 10.2 µM | 1.5 µM |  |  | 
15 | Cc1cc(Cc2ccc(NC(=O)NCCCl)cn2)n(C)c1C(=O)c1ccc(Cl)cc1 [compound 310, 1-{2-[5-(4-Chlorobenzoyl)-1,4-dimethyl-1H-pyrrol-2-ylmethyl]pyridin-5-yl}-3-(2-chloro-ethyl)urea] | 142 µM | 9.2 µM |  |  | 
16 | N-{2-[5-(4-Methylbenzoyl)-1,4-dimethyl-1H-pyrrol-2-ylmethyl]pyridin-5-yl}- 2-(hydroxy)-ethanesulfonamide hydrochloride [compound 272] | > 1000 µM | 2.1 µM |  |  | 

Now from value to molecule, other results behind:

Row | IC50 (COX I; [1]) | IC50 (COX II; [2]) | Molecule | % Inhibition of air pouch PGE2 formation (air pouch PGE2 formation) | IC50 (COX I) | IC50 (COX II)
17 | 9.1 µM | 2.6 µM | Cc1cc(Cc2ccc(NS(=O)(=O)N(C)C)cn2)n(C)c1C(=O)c1ccccc1 [compound 294, 1-{2-[5-Benzoyl-1,4-dimethyl-1H-pyrrol-2-ylmethyl]pyridin-5-yl}-3,3-dimethylsulfamide] |  |  | 
18 | 0.6 µM | 0.1 µM | Cc1cc(Cc2ccc(NS(N)(=O)=O)cn2)n(C)c1C(=O)c1ccccc1 [compound 295, 1-{2-[5-benzoyl-1,4-dimethyl-1H-pyrrol-2-ylmethyl]pyridin-5-yl}sulfamide] |  |  | 
19 | 0.21 µM | 0.4 µM | CSc1ccc(C(=O)c2c(C)cc(Cc3ccc(NS(=O)(=O)N(C)C)cn3)n2C)cc1 [compound 296, 1-{2-[5-(4-Methylthiobenzoyl)-1,4-dimethyl-1H-pyrrol-2-ylmethyl]pyridin-5-yl}-3,3-di-methylsulfamide] |  |  | 
20 | 113 µM | 0.64 µM | COc1ccc(C(=O)c2ccc(Cc3ccc(NS(N)(=O)=O)cn3)n2C)cc1 [compound 306, 1-{2-[5-(4-Methoxybenzoyl)-1-methyl-1H-pyrrol-2-ylmethyl]pyridin-5-yl}sulfamide] |  |  | 
21 | 650 µM | 8.75 µM | Cc1cc(Cc2ccc(NC(=O)N(C)C)cn2)n(C)c1C(=O)c1ccc(Cl)cc1 [compound 308, 1-{2-[5-(4-Chlorobenzoyl)-1,4-dimethyl-1H-pyrrol-2-ylmethyl]pyridin-5-yl}-3,3-di-methylurea] |  |  | 
22 | 65 µM | 0.56 µM | CCNC(=S)Nc1ccc(Cc2cc(C)c(C(=O)c3ccc(Cl)cc3)n2C)nc1 [compound 314, 1-{2-[5-(4-Chlorobenzoyl)-1,4-dimethyl-1H-pyrrol-2-ylmethyl]pyridin-5-yl}-3-ethyl-2-thiourea] |  |  | 
23 | 360 µM | 0.2 µM | Cc1cc(Cc2ccc(NC(=S)Nc3ccccc3)cn2)n(C)c1C(=O)c1ccc(Cl)cc1 [compound 316, 1-{2-[5-(4-Chlorobenzoyl)-1,4-dimethyl-1H-pyrrol-2-ylmethyl]pyridin-5-yl}-3-phenyl-2-thiourea] |  |  | 
24 | 256 µM | 43.7 µM | CC(=O)Nc1ccc(Cc2cc(C)c(C(=O)c3ccc(Cl)cc3)n2C)nc1 [compound 329, N-{2-[5-(4-Chlorobenzoyl)-1,4-dimethyl-1H-pyrrol-2-ylmethyl]pyridin-5-yl}acetamide] |  |  | 
25 | 61.1 µM | 30 µM | Cc1cc(Cc2ccc(NC=O)cn2)n(C)c1C(=O)c1ccc(Cl)cc1 [compound 330, N-{2-[5-(4-Chlorobenzoyl)-1,4-dimethyl-1H-pyrrol-2-ylmethyl]pyridin-5-yl}formamide] |  |  | 
26 | 0.02 µM | 0.06 µM | Cc1cc(Cc2ccc(NS(C)(=O)=O)cc2F)n(C)c1C(=O)c1cccs1 [compound 340, N-{3-Fluoro-4-[5-(2-thenoyl)-1,4-dimethyl-1H-pyrrol-2-ylmethyl]phenyl}-methanesulfonamide] |  |  | 
